The source of these data is US20230390298A1, “METHOD AND COMPOSITIONS FOR USE IN PROVIDING MALE CONTRACEPTION” (Eppin Pharma, Inc., priority 2022, published 2023).

Assay [1] addresses T1, recombinant human EPPIN (Homo sapiens, UniProt O95925).
T1 construct: made in house; host or cells: E. coli strain OrigamiB-DE3-pLysS
Put plainly: Epitope ALPHA (AlphaScreen) assay, EPPIN / anti-EPPIN antibody binding. The settings on record: EPPIN on donor beads, anti-EPPIN antibody on acceptor beads. The text has this:
Two assays for high throughput screening (HTS) of compounds have been established and validated. In one embodiment, these assays are based on an adaptation of the AlphaScreen™ assay developed by PerkinElmer (Waltham, MA). In the AlphaScreen™ (amplified luminescent proximity homogeneous assay) assay donor and acceptor beads (˜200 nm) are employed to hold interacting protein molecules. When the interacting protein molecules bind (for example EPPIN {on the donor bead} and anti-EPPIN {on the acceptor bead}), single state oxygen molecules diffuse from the donor bead to the acceptor bead (˜4 μsec) and fluorophores subsequently emit light at 520-620 nm. In the primary compound screen, histidine-tagged recombinant human EPPIN is attached to NTA-donor beads and anti-EPPIN (S21C; against the EPPIN C-terminal domain) is attached to protein A-acceptor beads. This epitope specific assay gives strong and stable binding between EPPIN and the antibody.
Briefly, recombinant histidine-tagged recombinant EPPIN was pre-incubated with Ni-NTA chelate donor beads (catalog number AS101, Perkin Elmer, Waltham MA) and anti-Eppin 007 or anti-Eppin Q20E antibody was pre-incubated with Protein A acceptor beads (catalog number 6760136, Perkin Elmer, Waltham MA) for 30 minutes. Equal volumes of donor and acceptor bead mixtures were pipetted into white opaque 384-well microplates (OptiPlate-384; PerkinElmer, Waltham, MA) in a final volume of 30 μL. Plates were covered with top seal and transferred to a Synergy HTS Multiplatform automated plate reader (Biotek, Winooski, VT). After shaking for 2 min, plates were read with an excitation 680/30 filter, an emission 570/100 filter and data acquired using Gen5 software (Biotek). Each set of samples was pipetted in 4 replicates. The final concentration of assay components was 58 nM EPPIN, 2 nM anti-Eppin 007 or Q20E antibody, 5 μg/ml donor beads and 10 μg/ml acceptor beads in 0.1M Tris pH=8, 0.1% bovine serum albumin and 0.01% Tween-20. Negative controls were performed under the same conditions in the absence of EPPIN or antibody and in the presence of beads only. The antibody 007 used in this assay binds the same epitope that binds the EP055 compound so the two entities compete for binding to EPPIN. Q20E binds the n-terminal part of EPPIN.
Non-specific interactions of compound with assay components were measured at the same time with the IgG detection kit ([…] biotinylated rabbit IgG) to generate the bead interaction: 10 μg/ml donor and acceptor beads. (catalog number 6760617C, Perkin Elmer).
A specific signal for each time point was calculated by subtracting the background signal (obtained in the absence of Eppin) from its respective total signal. EC50 values for the binding of EPPIN to specific compounds were calculated by non-linear regression curve fitting using the specific signal obtained after 16 h of incubation using GraphPad Prism version 6.00 for Windows (GraphPad Software, La Jolla California USA, www.graphpad.com).
On the technique in general: Alpha assays give light when donor and acceptor beads are brought close together.

Assay [2] concerns human sperm motility. Put plainly: live sperm computer-assisted sperm analysis (CASA) assay. Format: cell-based. The settings on record: for inhibitory activity in the CASA sperm motility assay: human spermatozoa. The procedure: In another embodiment, a computer-assisted sperm analysis (CASA) can be used as a live cell compound screen for determining the effect of compounds on human sperm motility. Additionally, to facilitate the EC50 evaluation of compounds using different ejaculates, reducing inter-assay variation due to differences in sperm quality in different semen samples, an index of relative motility inhibition (RMI) was developed. This is calculated as: RMI=[% motility*VSL]; percentage of motile sperm (% motility) or the percentage of progressively motile sperm (% progressive motility, RPMI) multiplied by the straight-line velocity (VSL); the average velocity measured in a straight line from the beginning to the end of a track in μm/sec. Normalized RMI can be calculated by dividing the RMI of each experimental condition by its respective DMSO control.
The live-sperm Computer Assisted Sperm Analysis (CASA) Assays were done as follows.
Human semen samples were obtained from the Department of Obstetrics and Gynecology, University of North Carolina Memorial Hospital, Chapel Hill, NC. […] Semen samples were allowed to liquefy for 30 minutes and subjected to standard semen analysis to determine acceptability before freezing. All samples were stored in liquid nitrogen, and de-identified by the Department of Obstetrics and Gynecology, University of North Carolina Memorial Hospital, Chapel Hill, NC before further processing. A density gradient (SpermCare catalog number 2221 and 2222, InvitroCare Inc., Frederick MD) was used to prepare spermatozoa for further analysis. At least 3 independent experiments were done per assay, each using several pooled samples from a single donor. Briefly sperm were washed after the density gradient with EP buffer-0.4% human serum albumin and resuspended in the same buffer for compound treatments. Sperm were diluted to 5×10^6/mL in 12×75 mm glass tubes with the appropriate treatment and incubated at 37° C. in 5% CO2. For CASA analysis, sperm were loaded onto slides (CellVison 4 chamber (20 μM), catalog number CV-1020-4CV, Fertility Technology Resources, Murphy NC) and warmed to 37° C. before analysis. Videos of sperm motility were collected using a Nikon ECLIPSE TS2-FL inverted microscope with 10× eyepiece and a 10× negative phase contrast objective and a Basler high speed camera (1280×1024 px, 200 fps, USB 3, CMOS). AVI Videos were analyzed using OpenCASA software (version 2). Units for CASA parameters are as follows: VAP (average path velocity), VSL (straight line velocity), and VCL (curvilinear velocity)=μm/sec (microns/sec); ALH (lateral head amplitude)=μm; BCF (beat cross-frequency)=Hz. The relative mobility index (RMI) is a measure of the effect of compound on sperm and is calculated as the VSL x % normal motility and normalized to the appropriate DMSO control.

T1 sequence (O95925 22-133): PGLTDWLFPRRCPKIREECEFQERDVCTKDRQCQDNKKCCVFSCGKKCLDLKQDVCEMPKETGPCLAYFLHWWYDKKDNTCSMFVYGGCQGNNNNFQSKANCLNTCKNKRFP

As for `CO/N=C/c1ccc(Cc2nc(NNC(=O)OC)cc(SCCC(=O)OC)n2)cc1O` [EP102, methyl 3-{[2-({3-hydroxy-4-[(1E)-(methoxyimino)methyl]phenyl}methyl)-6-{[(methoxycarbonyl)amino]amino}pyrimidin-4-yl]sulfanyl}propanoate], in assay [1], the “inhibitory activity in the epitope ALPHA assay” value is on record as “inhibitory activity”. Also, the “inhibitory activity in the CASA sperm motility assay” value in assay [2] is listed as “inhibitory activity”.
Turning to `COC(=O)CCCSc1nc(NNC(=O)OC)nc(Nc2ccc(NC(C)=O)c(O)c2)n1` [EP098, methyl 4-({4-[(4-acetamido-3-hydroxyphenyl)amino]-6-{[(methoxycarbonyl)amino]amino}-1,3,5-triazin-2-yl}sulfanyl)butanoate], the “inhibitory activity in the epitope ALPHA assay” value in assay [1] is listed as “inhibitory activity”. The “inhibitory activity in the CASA sperm motility assay” value in assay [2] is “inhibitory activity”.
As to `COC(=O)CCSc1cc(NNC(=O)OC)nc(Cc2ccc(NC(C)=O)c(O)c2)n1` [EP100, methyl 3-({2-[(4-acetamido-3-hydroxyphenyl)methyl]-6-{[(methoxycarbonyl)amino]amino}pyrimidin-4-yl}sulfanyl)propanoate], in assay [1], the “inhibitory activity in the epitope ALPHA assay” value is listed as “inhibitory activity”. Further, in assay [2], the “inhibitory activity in the CASA sperm motility assay” value is “inhibitory activity”.
Turning to `COC(=O)CCSc1cc(NNC(=O)OC)cc(Cc2ccc(CC(C)=O)c(O)c2)n1` [EP101, methyl 3-[(6-{[3-hydroxy-4-(2-oxopropyl)phenyl]methyl}-4-{[(methoxycarbonyl)amino]amino}pyridin-2-yl)sulfanyl]propanoate], the “inhibitory activity in the epitope ALPHA assay” value in assay [1] is given as “inhibitory activity”. In assay [2], the “inhibitory activity in the CASA sperm motility assay” value is “inhibitory activity”.
For `COC(=O)NNc1nc(Nc2ccc(NC(C)=O)c(O)c2)nc(SCCC(=O)O)n1` [EP083, 3-((4-((4-acetamido-3-hydroxyphenyl)amino)-6-(2-(methoxycarbonyl)hydrazineyl)-1,3,5-triazin-2-yl)thio)propanoic acid], the “inhibitory activity in the epitope ALPHA assay” value in assay [1] is “inhibitory activity”. The “inhibitory activity in the CASA sperm motility assay” value in assay [2] is listed as “inhibitory activity”.
In the case of `CO/N=C/c1ccc(Cc2cc(NNC(=O)OC)cc(SCCC(=O)O)n2)cc1O` [EP104, 3-{[6-({3-hydroxy-4-[(1E)-(methoxyimino)methyl]phenyl}methyl)-4-{[(methoxycarbonyl)amino]amino}pyridin-2-yl]sulfanyl}propanoic acid], in assay [1], the “inhibitory activity in the epitope ALPHA assay” value is given as “inhibitory activity”. Besides, in assay [2], the “inhibitory activity in the CASA sperm motility assay” value is reported as “inhibitory activity”.
For the molecule `CO/N=C/c1ccc(Cc2cc(NNC(=O)OC)cc(SCCC(=O)OC)n2)cc1O` [EP103, methyl 3-{[6-({3-hydroxy-4-[(1E)-(methoxyimino)methyl]phenyl}methyl)-4-{[(methoxycarbonyl)amino]amino}pyridin-2-yl]sulfanyl}propanoate], in assay [1], the “inhibitory activity in the epitope ALPHA assay” value was “inhibitory activity”. In addition, the “inhibitory activity in the CASA sperm motility assay” value in assay [2] was “inhibitory activity”.
Consider `COC(=O)NNc1nc(Nc2ccc(NC(C)=O)c(O)c2)nc(SCCCC(=O)O)n1` [EP096, 4-((4-((4-acetamido-3-hydroxyphenyl)amino)-6-(2(methoxycarbonyl)hydrazineyl)-1,3,5-triazin-2-yl)thio)butanoic acid], for which the “inhibitory activity in the epitope ALPHA assay” value in assay [1] is “inhibitory activity”. Besides, the “inhibitory activity in the CASA sperm motility assay” value in assay [2] is reported as “inhibitory activity”.
As for `COC(=O)CCSc1nc(NNC(=O)OC)nc(Nc2ccc(NC(C)=O)c(O)c2)n1` [EP082, methyl 3-({4-[(4-acetamido-3-hydroxyphenyl)amino]-6-{[(methoxycarbonyl)amino]amino}-1,3,5-triazin-2-yl}sulfanyl)propanoate], the “inhibitory activity in the epitope ALPHA assay” value in assay [1] is “inhibitory activity”. Besides, in assay [2], the “inhibitory activity in the CASA sperm motility assay” value is reported as “inhibitory activity”.
Consider `COC(=O)NNc1nc(Nc2ccc(NC(C)=O)c(O)c2)nc(SCCC(C)=O)n1` [EP091, methyl 2-(4-((4-acetamido-3-hydroxyphenyl)amino)-6-((3-oxobutyl)thio)-1,3,5-triazin-2-yl) hydrazine-1-carboxylate], for which the “inhibitory activity in the epitope ALPHA assay” value in assay [1] was “inhibitory activity”. The “inhibitory activity in the CASA sperm motility assay” value in assay [2] is listed as “inhibitory activity”.

B1: SEMG1: semenogelin, seminal vesicle protein that binds EPPIN on sperm and inhibits progressive motility (protein, UniProt P04279 24-462, looked up)
Semenogelin-1: QKGGSKGRLPSEFSQFPHGQKGQHYSGQKGKQQTESKGSFSIQYTYHVDANDHDQSRKSQQYDLNALHKTTKSQRHLGGSQQLLHNKQEGRDHDKSKGHFHRVVIHHKGGKAHRGTQNPSQDQGNSPSGKGISSQYSNTEERLWVHGLSKEQTSVSGAQKGRKQGGSQSSYVLQTEELVANKQQRETKNSHQNKGHYQNVVEVREEHSSKVQTSLCPAHQDKLQHGSKDIFSTQDELLVYNKNQHQTKNLNQDQQHGRKANKISYQSSSTEERRLHYGENGVQKDVSQSSIYSQTEEKAQGKSQKQITIPSQEQEHSQKANKISYQSSSTEERRLHYGENGVQKDVSQRSIYSQTEKLVAGKSQIQAPNPKQEPWHGENAKGESGQSTNREQDLLSHEQKGRHQHGSHGGLDIVIIEQEDDSDRHLAQHLNNDRNPLFT
The EC50 is the concentration at which the effect is half-maximal. In the case of B1, in assay [2] (inhibiting sperm motility and impairing proper function, read-out: calculated EC50 value for inhibiting sperm motility), the EC50 was 8.8 µM.
